Measurements from US9670227B2, “Thienopyrimidine derivatives, a process for their preparation and pharmaceutical compositions containing them” (LES LABORATOIRES SERVIER, priority 2013, dated 2017).
Where two headings read alike, the source gives them in different places.

How the values were obtained:
[1] = tested on: H929 multiple myeloma tumour line; assay: In vitro cytotoxicity, Microculture Tetrazolium Assay; assay type: cell-based; settings: H929 cells, 48 hours exposure, MTT, read-out: IC50 (μM) MTT H929
Protocol: The cytotoxicity studies were carried out on the H929 multiple myeloma tumour line.
The cells are distributed onto microplates and exposed to the test compounds for 48 hours.

Mcl-1 protein = Mcl-1 protein (UniProtKB primary accession number: Q07820) (Homo sapiens, UniProt Q07820); assay: Inhibition of Mcl-1 by fluorescence polarisation, Method 1; assay type: binding; settings: read-out: IC50 (M) Mcl-1 FP
Chain of Mcl-1 protein (Q07820 whole entry): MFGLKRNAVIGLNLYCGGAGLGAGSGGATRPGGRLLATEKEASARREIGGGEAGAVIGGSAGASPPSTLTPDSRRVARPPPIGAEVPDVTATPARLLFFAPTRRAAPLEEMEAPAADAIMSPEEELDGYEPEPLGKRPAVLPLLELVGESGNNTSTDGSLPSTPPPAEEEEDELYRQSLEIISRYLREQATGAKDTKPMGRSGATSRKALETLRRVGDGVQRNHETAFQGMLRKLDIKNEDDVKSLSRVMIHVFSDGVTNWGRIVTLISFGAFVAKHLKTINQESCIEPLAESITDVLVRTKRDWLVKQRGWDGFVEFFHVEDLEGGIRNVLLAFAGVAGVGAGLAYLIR
Summary of the method: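 FP competition, 11-point compound titration in 5% final DMSO; protein and labelled probe at 5 nM and 1 nM final in HEPES/NaCl/Tween 20 buffer, pH 7.4.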

[2] = fluorescence polarisation test, Method 2 values are underlined in the patent (underlining not visible here)
[3] = fluorescence polarisation, Method 1, or Method 2

Row | Compound | IC50 (Mcl-1 protein; [2]) [M] | IC50 (Mcl-1 protein; [3]) [M] | IC50 ([1]; Homo sapiens, NCI-H929, 48 h) [µM] | IC50 [1] [µM]
1 | Cc1c(-c2c(-c3ccc(F)cc3)sc3ncnc(OC(Cc4ccccc4OCc4ccnc(C(C)C)n4)C(=O)O)c23)ccc(OCCN2CCN(C)CC2)c1Cl [Example 24, (2R)-2-{[(5Sa)-5-{3-chloro-2-methyl-4-[2-(4-methylpiperazin-1-yl)ethoxy]phenyl}-6-(4-fluorophenyl)thieno[2,3-d]pyrimidin-4-yl]oxy}-3-(2-{[2-(propan-2-yl)pyrimidin-4-yl]methoxy}phenyl)propanoic acid] | 8.1e-09 | – | 0.012 | –
2 | CCCCn1nccc1COc1ccccc1CC(Oc1ncnc2sc(-c3ccc(OC)cc3)c(-c3ccc(OCCN4CCN(C)CC4)c(Cl)c3C)c12)C(=O)O [Example 603, (2R)-3-{2-[(1-butyl-1H-pyrazol-5-yl)methoxy]phenyl}-2-{[(5Sa)-5-{3-chloro-2-methyl-4-[2-(4-methylpiperazin-1-yl)ethoxy]phenyl}-6-(4-methoxyphenyl)thieno[2,3-d]pyrimidin-4-yl]oxy}propanoic acid] | – | 5e-09 | 0.036 | –
3 | COc1ccccc1CC(Oc1ncnc2sc(-c3cccc(F)c3F)c(-c3ccc(OCCN4CCN(C)CC4)c(Cl)c3C)c12)C(=O)O [Example 560, (2R)-2-{[(5Sa)-5-{3-chloro-2-methyl-4-[2-(4-methylpiperazin-1-yl)ethoxy]phenyl}-6-(2,3-difluorophenyl)thieno[2,3-d]pyrimidin-4-yl]oxy}-3-(2-methoxyphenyl)propanoic acid] | – | 1.1e-08 | 0.128 | –
4 | Cc1cscc1-c1sc2ncnc(O[C@H](Cc3ccccc3)C(=O)O)c2c1-c1ccc(OCCN2CCN(C)CC2)c(Cl)c1C [Example 516, (2R)-2-{[(5Sa)-5-{3-chloro-2-methyl-4-[2-(4-methylpiperazin-1-yl)ethoxy]phenyl}-6-(4-methylthiophen-3-yl)thieno[2,3-d]pyrimidin-4-yl]oxy}-3-phenylpropanoic acid] | – | 1.3e-07 | – | 5.07
5 | COc1ccccc1-c1nccc(COc2ccccc2CC(Oc2ncnc3sc(-c4ccc(OCc5ccnn5C)cc4)c(-c4ccc(OCCN5CCN(C)CC5)c(Cl)c4C)c23)C(=O)O)n1 [Example 771, (2R)-2-[((5Sa)-5-{3-chloro-2-methyl-4-[2-(4-methylpiperazin-1-yl)ethoxy]phenyl}-6-{4-[(1-methyl-1H-pyrazol-5-yl)methoxy]phenyl}thieno[2,3-d]pyrimidin-4-yl)oxy]-3-(2-{[2-(2-methoxyphenyl)pyrimidin-4-yl]methoxy}phenyl)propanoic acid] | – | 1.04e-09 | 0.019 | –
6 | Cc1c(-c2c(-c3ccc(F)cc3)sc3ncnc(OC(Cc4ccccc4OCc4ncncc4Br)C(=O)O)c23)ccc(OCCN2CCN(C)CC2)c1Cl [Example 101, (2R)-3-{2-[(5-bromopyrimidin-4-yl)methoxy]phenyl}-2-{[(5Sa)-5-{3-chloro-2-methyl-4-[2-(4-methylpiperazin-1-yl)ethoxy]phenyl}-6-(4-fluorophenyl)thieno[2,3-d]pyrimidin-4-yl]oxy}propanoic acid] | 8e-09 | – | 0.398 | –

More lines, main results first:

Row | IC50 (Mcl-1 protein; [2]) [M] | IC50 (Mcl-1 protein; [3]) [M] | Compound | IC50 ([1]; Homo sapiens, NCI-H929, 48 h) [µM] | IC50 [1] [µM]
7 | 7.6e-09 | – | Cc1c(-c2c(-c3ccc(F)o3)sc3ncnc(OC(Cc4ccccc4OCC(=O)NCCc4ccccc4)C(=O)O)c23)ccc(OCCN2CCN(C)CC2)c1Cl [Example 155, (2R)-2-{[(5Sa)-5-{3-chloro-2-methyl-4-[2-(4-methylpiperazin-1-yl)ethoxy]phenyl}-6-(5-fluorofuran-2-yl)thieno[2,3-d]pyrimidin-4-yl]oxy}-3-(2-{2-oxo-2-[(2-phenylethyl)amino]ethoxy}phenyl)propanoic acid] | 0.189 | –
8 | – | 5.9e-08 | COc1ccccc1CC(Oc1ncnc2sc(-c3cccc(SC)c3)c(-c3ccc(OCCN4CCN(C)CC4)c(Cl)c3C)c12)C(=O)O [Example 558, (2R)-2-[((5Sa)-5-{3-chloro-2-methyl-4-[2-(4-methylpiperazin-1-yl)ethoxy]phenyl}-6-[3-(methylsulfanyl)phenyl]thieno[2,3-d]pyrimidin-4-yl)oxy]-3-(2-methoxyphenyl)propanoic acid] | 0.742 | –
9 | – | 3.2e-09 | CCN1CCN(CCOc2ccc(-c3c(-c4ccco4)sc4ncnc(OC(Cc5ccccc5OCc5ccnc(OC)n5)C(=O)O)c34)c(C)c2Cl)CC1 [Example 670, (2R)-2-{[(5Sa)-5-{3-chloro-4-[2-(4-ethylpiperazin-1-yl)ethoxy]-2-methylphenyl}-6-(furan-2-yl)thieno[2,3-d]pyrimidin-4-yl]oxy}-3-{2-[(2-methoxypyrimidin-4-yl)methoxy]phenyl}propanoic acid] | 0.027 | –
10 | – | 3.5e-08 | CCc1sc2ncnc(OC(Cc3ccccc3)C(=O)O)c2c1-c1ccc(OCCCS(C)(=O)=O)c(Cl)c1C [Example 406, (2R)-2-[((5Sa)-5-{3-chloro-2-methyl-4-[3-(methylsulfonyl)propoxy]phenyl}-6-ethylthieno[2,3-d]pyrimidin-4-yl)oxy]-3-phenylpropanoic acid] | 21.9 | –
11 | 8.4e-09 | – | Cc1c(-c2c(-c3ccc(F)cc3)sc3ncnc(OC(Cc4ccccc4OCc4ccnc(-c5ccc(C(F)(F)F)nc5)n4)C(=O)O)c23)ccc(OCCN2CCN(C)CC2)c1Cl [Example 109, (2R)-2-{[(5Sa)-5-{3-chloro-2-methyl-4-[2-(4-methylpiperazin-1-yl)ethoxy]phenyl}-6-(4-fluorophenyl)thieno[2,3-d]pyrimidin-4-yl]oxy}-3-[2-({2-[6-(trifluoromethyl)pyridin-3-yl]pyrimidin-4-yl}methoxy)phenyl]propanoic acid] | 0.108 | –
12 | 1.6e-08 | – | COc1cc(COc2ccccc2CC(Oc2ncnc3sc(-c4ccc(F)cc4)c(-c4ccc(OCCN5CCN(C)CC5)c(Cl)c4C)c23)C(=O)O)ccn1 [Example 21, (2R)-2-{[(5Sa)-5-{3-chloro-2-methyl-4-[2-(4-methylpiperazin-1-yl)ethoxy]phenyl}-6-(4-fluorophenyl)thieno[2,3-d]pyrimidin-4-yl]oxy}-3-{2-[(2-methoxypyridin-4-yl)methoxy]phenyl}propanoic acid] | 0.162 | –
13 | 6e-08 | – | COc1ccccc1CC(Oc1ncnc2sc(-c3ccco3)c(-c3ccc(OCCN4CCN(Cc5ccccc5)CC4)c(Cl)c3C)c12)C(=O)O [Example 329, (2R)-2-{[(5Sa)-5-{4-[2-(4-benzylpiperazin-1-yl)ethoxy]-3-chloro-2-methylphenyl}-6-(furan-2-yl)thieno[2,3-d]pyrimidin-4-yl]oxy}-3-(2-methoxyphenyl)propanoic acid] | 3.31 | –
14 | – | 9.3e-09 | COc1nccc(COc2ccccc2CC(Oc2ncnc3sc(-c4cccc(F)c4F)c(-c4ccc(OCCN5CCN(C)CC5)c(Cl)c4C)c23)C(=O)O)n1 [Example 703, (2R)-2-{[(5Sa)-5-{3-chloro-2-methyl-4-[2-(4-methylpiperazin-1-yl)ethoxy]phenyl}-6-(2,3-difluorophenyl)thieno[2,3-d]pyrimidin-4-yl]oxy}-3-{2-[(2-methoxypyrimidin-4-yl)methoxy]phenyl}propanoic acid] | 0.03 | –
15 | 1.4e-08 | – | Cc1c(-c2c(-c3ccc(F)cc3)sc3ncnc(OC(Cc4ccccc4OCC4CCCO4)C(=O)O)c23)ccc(OCCN(C)C)c1Cl [Example 126, (2R)-2-{[(5Sa)-5-{3-chloro-4-[2-(dimethylamino)ethoxy]-2-methylphenyl}-6-(4-fluorophenyl)thieno[2,3-d]pyrimidin-4-yl]oxy}-3-{2-[(2R)-tetrahydrofuran-2-ylmethoxy]phenyl}propanoic acid] | 0.7 | –
